Test results published in patent EP0253314B1, “Peptidase and process for producing the same” (SUNTORY LIMITED, priority 1986, dated 1988).
Non-standard residues stand in square brackets, D forms with d. Residues, ends and D or L forms follow the SMILES beside them. *: point of attachment. Sta = CC(C)C[C@H](N)[C@@H](O)CC(=O)O; Isovaleryl = CC(C)CC(=O)*

What was measured:
[1] = tested on: peptidase of the present invention; assay type: biochemical, Saccharomyces cerevisiae; design: key to Inhibition: - indicates that the reaction was not inhibited; settings: for Inhibition: pH 4
[2] = tested on: enzyme of the present invention; assay: Substrate specificity of enzyme (percentage of cleaved substrate by HPLC); assay type: biochemical, Saccharomyces cerevisiae; settings: 24 hours at 30°C in 0.05 M acetate buffer (pH 4.0); DEAE-Sephacel fraction eluted with 0.2 M NaCl
α-MF = α-MF produced at a level of several µg/ml; reacted for 24 hours; prior-art culture activity; cited from earlier work

Row | Compound | Response to inhibitor (inhibition of the enzyme, in words) [1] | Inhibition [1] | % Cleavage [2] | α-MF cleaved (α-MF)
1 | O=C(O)c1cc[c]([Hg][Cl])cc1 [PCMB, p-chloro-mercuribenzoic acid] | inhibited neither | - |  | 
2 | C[C@@H](O)[C@H](N)C(=O)N[C@@H](CCCCN)C(=O)N1CCC[C@H]1C(=O)N[C@@H](CCCNC(=N)N)C(=O)O [tuftsin, Thr - Lys - Pro - Arg] (H-TKPR-OH) |  |  | 0% | 
3 | O=S(=O)(F)Cc1ccccc1 [PMSF, phenylmethylsulfonyl fluoride] | inhibited neither | - |  | 
4 | CC(C)CC(=O)N[C@H](C(=O)N[C@H](C(=O)N[C@@H](CC(C)C)[C@@H](O)CC(=O)N[C@@H](C)C(=O)N[C@@H](CC(C)C)[C@@H](O)CC(=O)O)C(C)C)C(C)C [Pepstatin, pepstatin] (Isovaleryl-VV[Sta]A[Sta]-OH) | not inhibited | - |  | 
5 | Cys - Tyr - Ile - Gln - Asn - Cys - Pro - Leu - Gly - NH2 [oxytocin] |  |  | 0% | 
6 | Tyr - Gly - Gly - Phe - Met - Thr - Ser - Glu - Lys - Ser - Gln - Thr - Pro - Leu - Val - Thr - Leu [β-endorphin] |  |  | 0% | 
7 | Cc1ccc(S(=O)(=O)N[C@@H](CCCCN)C(=O)CCl)cc1 [TLCK, tosyl - L - lysine chloromethyl ketone] | inhibited neither | - |  | 
8 | Trp - Gly - Gly - Phe - Leu - Arg - Arg - Ile - Arg - Pro - Lys - Leu - Lys - Trp - Asp - Asn - Gln [dynorphin] |  |  | not less than 90% | 
9 | CC(=O)N[C@@H](CC(C)C)C(=O)N[C@@H](CC(C)C)C(=O)N[C@H](C=O)CCCNC(=N)N [Leupeptin, leupeptin] | inhibited neither | - |  | 
10 | O=C(O)CI [monoiodoacetic acid] | inhibited neither | -* |  | 
11 | Trp - His - Trp - Leu - Gln - Leu - Lys - Pro - Gly - Gln - Pro - Met - Tyr [α-MF] |  |  | not less than 90% | about 50%
12 | O=C(O)CN(CCN(CC(=O)O)CC(=O)O)CC(=O)O [EDTA] | not inhibited | - |  | 
13 | pGlu - Leu - Tyr - Glu - Asn - Lys - Pro - Arg - Arg - Pro - Tyr - Ile - Leu [neurotensin] |  |  | 0% | 
14 | Ser - Glu - Glu - Pro - Pro - Ile - Ser - Leu - Asp - Leu - Thr - Phe - His - Leu - Leu - Arg - Glu - Val - Leu - Glu - Met - Ala - Arg - Ala - Glu - Gln - Leu - Ala - Gln - Gln - Ala - His - Ser - Asn - Arg - Lys - Leu - Met - Glu - Ile - Ile - NH2 [CRF] |  |  | 0% | 
15 | Ser - Leu - Arg - Arg - Ser - Ser - Cys - Phe - Gly - Gly - Arg - Met - Asp - Arg - Ile - Gly - Ala - Gln - Ser - Gly - Leu - Gly - Cys - Asn - Ser - Phe - Arg - Tyr [α-hamp] |  |  | 0% | 
